The values below come from patent US9278915B2, “Agonists of GPR40” (CONNEXIOS LIFE SCIENCES PVT LTD, priority 2010, dated 2016).

Molecules are shown by their SMILES. A value given as a limit tells only on which side of the number the result lay.

The target of the test is T1, hGPR40 (Homo sapiens, UniProt O14842).
T1 construct: expressed in transfected cells
T1 sequence (O14842 whole entry): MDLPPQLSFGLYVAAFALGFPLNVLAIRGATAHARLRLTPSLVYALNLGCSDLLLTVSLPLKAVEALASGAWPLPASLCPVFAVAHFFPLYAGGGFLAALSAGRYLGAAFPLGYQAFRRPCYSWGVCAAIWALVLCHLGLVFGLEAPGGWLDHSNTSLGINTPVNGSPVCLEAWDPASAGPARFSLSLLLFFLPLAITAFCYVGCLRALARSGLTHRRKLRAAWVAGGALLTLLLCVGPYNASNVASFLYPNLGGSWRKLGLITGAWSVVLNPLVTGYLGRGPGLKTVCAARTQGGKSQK
Briefly: Calcium flux assay to detect GPR40 activation. In kind it is cell-based. The following applies: CHO-K cells stably expressing hGPR40; Fluo-4 NW; read for 4 min at 5 s intervals. A digest of the protocol: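 CHO-K cells stably expressing hGPR40 were cultured 24 h at 37 °C and loaded with Fluo-4 NW for 30 min at 37 °C plus 30 min at RT. Compounds diluted in HEPES buffer were added, and calcium fluorescence was recorded for 4 min at 5 s intervals.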
A general note: Calcium assays in cells follow changes in intracellular calcium, usually with a dye or a luminescent sensor.
For the compound `CO/N=C(/COc1ccc(COc2ccc(C(C#N)CC(=O)O)cc2)cc1)c1ccc(F)cc1` (racemic) [Compound 22, 3-Cyano-3-{4-[(4-{[(2E,2Z)-2-(4-fluorophenyl)-2-(methoxyimino)ethyl]oxy}benzyl)oxy]phenyl}propanoic acid], the concentration giving a half-maximal response (EC50) is < 10 nM.

As to `CO/N=C(\COc1ccc(COc2ccc(/C(CC(=O)O)=N\OC3CCCCC3)cc2)cc1)c1ccccc1` [Compound 124, (3E,3Z)-3-[(Cyclohexyloxy)imino]-3-{4-[(4-{[(2Z)-2-(methoxyimino)-2-phenylethyl]oxy}benzyl)oxy]phenyl}propanoic acid], the EC50 is > 100 nM.

`CO/N=C(\COc1ccc(-c2ccc(CCC(=O)O)cc2)cc1)c1ccccc1` [Compound 115, 3-(4′-{[(2Z)-2-(Methoxyimino)-2-phenylethyl]oxy}biphenyl-4-yl)propanoic acid]: the EC50 was > 100 nM.

In the case of `CO/N=C(\COc1ccc(COc2ccc(-c3c(C)noc3CC(=O)O)cc2)cc1)c1ccccc1` [Compound 69, (4-{4-[(4-{[(2Z)-2-(Methoxyimino)-2-phenylethyl]oxy}benzyl)oxy]phenyl}-3-methyl-1,2-oxazol-5-yl)acetic acid], the EC50 is > 100 nM.

With `CO/N=C(\COc1ccc(COc2ccc(C(C#N)CC(=O)O)c(OC)c2)cc1)c1ccccc1` (centres unmarked) [Compound 83, 3-Cyano-3-{2-methoxy-4-[(4-{[(2Z)-2-(methoxyimino)-2-phenylethyl]oxy}benzyl)oxy]phenyl}propanoic acid], the EC50 fell in the range of 10 to 100 nM.

On to `CON=C(COc1ccc(COc2ccc(C(C)(C)CC(=O)O)cc2)cc1)c1ccccc1` (mixture of isomers) [Compound 61, 3-{4-[(4-{[(2E,2Z)-2-(Methoxyimino)-2-phenylethyl]oxy}benzyl)oxy]phenyl}-3-methylbutanoic acid], for which the EC50 is > 100 nM.

For `CO/N=C(\COc1ccc(COc2ccc(CCC(=O)O)c(C)c2)cc1)c1ccccc1` [Compound 38], the EC50 is > 100 nM.

With `CO/N=C(/c1ccccc1)c1cccc(CNc2ccc(C3CC3C(=O)O)cc2)c1` (racemic) [Compound 13, (1R,2R)-2-[4-({3-[(E,Z)-(Methoxyimino)(phenyl)methyl]benzyl}amino)phenyl]cyclopropanecarboxylic acid], the half-maximal effective concentration (EC50) lay within 10 to 100 nM.

With `CO/N=C(/COc1ccc(COc2ccc(C(C#N)CC(=O)O)cc2)cc1)c1ccccc1` (racemic) [Compound 98, 3-Cyano-3-{4-[(4-{[(2E)-2-(methoxyimino)-2-phenylethyl]oxy}benzyl)oxy]phenyl}propanoic acid], the EC50 lay in the range of 10 to 100 nM.

On to `CO/N=C(\COc1ccc(COc2ccc(/C=C/C(=O)O)c(-c3cc(C)on3)c2)cc1)c1ccccc1` [Compound 97, (2E,2Z)-3-{4-[(4-{[(2Z)-2-(Methoxyimino)-2-phenylethyl]oxy}benzyl)oxy]-2-(5-methyl-1,2-oxazol-3-yl)phenyl}prop-2-enoic acid], for which the EC50 is > 100 nM.

Turning to `CO/N=C(\COc1ccc(COc2ccc(CCC(N)=O)cc2)cc1)c1ccccc1` [Compound 120, 3-{4-[(4-{[(2Z)-2-(Methoxyimino)-2-phenylethyl]oxy}benzyl)oxy]phenyl}propanamide], the EC50 is > 100 nM.

What is called EC50 is the concentration at which the effect is half-maximal.
